Our source for the Activity, IC50 and inhibition values is ChEMBL document CHEMBL3351990, “Jiangrines A-F and jiangolide from an actinobacterium, Jiangella gansuensis” (J Nat Prod, 2014).

As a reminder, the IC50 is the concentration that gives 50% inhibition. One may read the inhibition as the percentage by which the read-out fell short of the control.

Data set [1] relates to RAW264.7. Briefly: Cytotoxicity against mouse RAW264.7 cells assessed as cell viability at 100 uM. To be noted: raw264.7, 100 µM. Format: cell-based.
In data set [2] the test system is RAW264.7. Kind of data set: Antiinflammatory activity in mouse RAW264.7 cells assessed as inhibition of LPS-induced NO production incubated for 1 hr prior to LPS-challenge measured after 24 hrs by Greiss assay. Format: functional, cell-based.
Data set [3] concerns RAW264.7. Briefly: Antiinflammatory activity in mouse RAW264.7 cells assessed as inhibition of LPS-induced NO production at 100 uM incubated for 1 hr prior to LPS-challenge measured after 24 hrs by Greiss assay. Format: functional.

Where only a bound is given, the exact number is not on record here.

Regarding `CO[C@H](c1ccc(C=O)n1CCc1ccc(O)cc1)[C@H](O)CO`, in data set [1], the Activity entry is on record as “Non-toxic”. Further, the IC50 in data set [2] was determined as 30.1 µM. The like results for `CO[C@@H](c1ccc(C=O)n1CCc1ccc(O)cc1)[C@H](O)CO` were, in that order, “Non-toxic” and 30.1 µM. For `CC(=O)NCCCCCn1cccc1C=O` the same measures were “Non-toxic” and 54.9 µM. The like results for `O=Cc1ccc(CO)n1CCc1ccc(O)cc1` were, in that order, “Non-toxic” and 58.8 µM. For the compound `O=c1[nH]cnc2c1-c1cccn1CC2`, the Activity result in data set [1] was “Non-toxic”. Also, the inhibition at 100 µM in data set [3] was below 20%.

For `C[C@H]1/C=C\C[C@H]2[C@@H](CC[C@@H]2O)CC(=O)OC[C@H]2O[C@@H](O1)[C@H](O)[C@@H](O)[C@@H]2O`, in data set [1], the Activity entry was “Non-toxic”. Also, the IC50 in data set [2] was found to be 61.4 µM. For `O=Cc1ccc([C@H](O)[C@H](O)CO)n1CCc1ccc(O)cc1` (relative stereo) the same measures were “Non-toxic” and 97.8 µM. For `O=Cc1ccc([C@H](O)[C@H](O)CO)n1CCc1c[nH]c2ccccc12` (relative stereo) the same measures were “Non-toxic” and 60.7 µM. Turning to `COC(=O)[C@@H](N)CCCNC(=N)N[N+](=O)[O-]` [L-NAME], the IC50 in data set [2] amounted to 53.6 µM.
